This note sets out measurements from patent US20260125352A1, “PROCESSES FOR CONVERTING FURFURALS” (Origin Materials Operating, Inc., priority 2023, published 2026).

This data set is described as follows: Solubility of amine and their hydrochlorides in solvents at room temperature. As to conditions: for Solubility of amines in water / Solubility of amines in acetone / Solubility of amines in methanol / Solubility of amines in methylfurfural (MF) / Solubility of amines in propylene carbonate / Solubility of amines in toluene: free amine, low values at saturation; for Solubility of amines in water / Solubility of amine hydrochloride salts in water: water μ = 78.4, high values not necessarily at saturation; for Solubility of amine hydrochloride salts in acetone / Solubility of amine hydrochloride salts in methanol / Solubility of amine hydrochloride salts in methylfurfural (MF) / Solubility of amine hydrochloride salts in propylene carbonate / Solubility of amine hydrochloride salts in toluene / Solubility of amine hydrochloride salts in water: hydrochloride salt of the amine precursor; for Solubility of amine hydrochloride salts in acetone / Solubility of amines in acetone: acetone μ = 20.7, high values not necessarily at saturation; for Solubility of amine hydrochloride salts in methanol / Solubility of amines in methanol: methanol μ = 32.7, high values not necessarily at saturation; for Solubility of amine hydrochloride salts in methylfurfural (MF) / Solubility of amines in methylfurfural (MF): methylfurfural (MF) μ = 41.9, high values not necessarily at saturation; for Solubility of amine hydrochloride salts in propylene carbonate / Solubility of amines in propylene carbonate: propylene carbonate μ = 64.9, high values not necessarily at saturation; for Solubility of amine hydrochloride salts in toluene / Solubility of amines in toluene: toluene μ = 2.4, high values not necessarily at saturation. The format is physicochemical.

In the case of `CN(C)C` [trimethylamine], the “Solubility of amines in water” value amounted to 47.16 wt. %, the “Solubility of amine hydrochloride salts in acetone” value was under 0.09 wt. %, the “Solubility of amine hydrochloride salts in methanol” value was determined as 34.66 wt. % and the “Solubility of amine hydrochloride salts in methylfurfural (MF)” value was under 0.13 wt. %. The “Solubility of amine hydrochloride salts in propylene carbonate” value is recorded as under 1.16 wt. %, the “Solubility of amine hydrochloride salts in toluene” value is recorded as under 0.12 wt. % and the “Solubility of amine hydrochloride salts in water” value is reported as 38.39 wt. %.
Take `CCN(C(C)C)C(C)C` [Hunig's base]: the “Solubility of amines in acetone” value worked out at 49.20 wt. %, the “Solubility of amines in methanol” value is on record as 49.11 wt. %, the “Solubility of amines in methylfurfural (MF)” value is 14.35 wt. % and the “Solubility of amines in propylene carbonate” value is 4.59 wt. %. For the same compound, the “Solubility of amines in toluene” value was found to be 46.90 wt. %, the “Solubility of amines in water” value was determined as 0.30 wt. %, the “Solubility of amine hydrochloride salts in acetone” value was 15.01 wt. % and the “Solubility of amine hydrochloride salts in methanol” value is 33.08 wt. %. The “Solubility of amine hydrochloride salts in methylfurfural (MF)” value is recorded as 26.83 wt. %, the “Solubility of amine hydrochloride salts in propylene carbonate” value amounted to 34.05 wt. %, the “Solubility of amine hydrochloride salts in toluene” value is listed as under 4.91 wt. % and the “Solubility of amine hydrochloride salts in water” value worked out at 33.39 wt. %.
As for `CCCCCN(CCCCC)CCCCC` [triamylamine], the “Solubility of amines in acetone” value was 49.87 wt. %, the “Solubility of amines in methanol” value is listed as 9.27 wt. %, the “Solubility of amines in methylfurfural (MF)” value amounted to 2.49 wt. % and the “Solubility of amines in propylene carbonate” value came out at 0.17 wt. %. The “Solubility of amines in toluene” value amounted to 47.61 wt. % and the “Solubility of amines in water” value is reported as 0.00 wt. %.
Consider `CC(C)CN(CC(C)C)CC(C)C` [triisobutylamine, 2-methyl-N,N-bis(2-methylpropyl)propan-1-amine], for which the “Solubility of amine hydrochloride salts in acetone” value stood at 34.35 wt. %, the “Solubility of amine hydrochloride salts in methanol” value is given as 47.15 wt. %, the “Solubility of amine hydrochloride salts in methylfurfural (MF)” value is recorded as 24.44 wt. % and the “Solubility of amine hydrochloride salts in propylene carbonate” value is 31.21 wt. %. Further, the “Solubility of amine hydrochloride salts in toluene” value stood at 51.82 wt. % and the “Solubility of amine hydrochloride salts in water” value was found to be 25.88 wt. %.
